Patent US6946588B2, “Nucleic acid encoding a modified threonine deaminase and methods of use” (Monsanto Technology LLC, priority 1996, dated 2005)

Assays:
BktB β-ketothiolase = BktB β-ketothiolase (Cupriavidus necator, UniProt Q0KBP1); assay: Thiolysis kinetics of purified BktB β-ketothiolase; conditions: 25° C.
Method: To enhance further our understanding of the kinetic characteristics of BktB β-ketothiolase, a thorough kinetic analysis of the enzyme's thiolysis activity was conducted using purified protein. The assay to determine the kinetic parameters Km and Vmax for βketobutyryl-CoA (C4), β-ketovaleryl-CoA (C5), and β-ketocaproyl-CoA (C6), was performed at 25° C. by the in situ generation of the β-keto compounds from their corresponding trans-2,3-enoyl-CoAs essentially as described by Haywood et al. (1988). Utilization of variable substrate concentrations permitted the determination of the descriptive kinetic parameters of the β-ketothiolase. Kinetic rates were determined only at fixed substrate concentrations in the Haywood et al. communication.
Purified BktB protein was prepared by growing E. coli […] transformed with pMON25754 in LB broth containing ampicillin (100μg/ml) overnight at 37° C. Cells were then harvested by centrifugation, and the pellet was resuspended in 50 mM KPi and 5% glycerol, sonicated, and the sonicate centrifuged to remove cellular debris. The cell extract was desalted using a PD-10 column (Pharmacia), and proteins resolved using a Pharmacia FPLC system and MonoQ anion-exchange column (Pharmacia). Buffer A was 10 mM Tris buffer, pH 7.8, plus 1 mM DTT; buffer B was buffer A plus 1 M KCl. The gradient was 0 to 10% B in 10 min, then to 35% B in 40 min. The flow rate was 1 ml/min, and the resolved proteins were collected at the rate of 1 ml/fraction. […] The enzyme was stored in 10 mM Tris-HCl, pH 7.8, 1 mM DTT, 50% glycerol at −20° C.
The C5 and C6 enoyl-CoAs were synthesized according to Schulz (1974) and purified using semi-prep C8-reverse-phase HPLC as described above for β-ketovaleryl-CoA. βketobutyryl-CoA (acetoacetyl-CoA) was purchased from Sigma (St. Louis, Mo.). The assay mixture (1 ml final volume) contained 150 mM EPPS, pH 8.0, 50 mM MgCl2, 1.5 mM pyruvate, 0.4 mM NAD+, and a coupling enzyme cocktail of three units crotonase, five units β-hydroxyacyl-CoA dehydrogenase, and 10 units lactic dehydrogenase. The enoyl-CoA was added to this mixture and the absorbance at 304 nm was monitored until it reached a plateau (typically about 5 min). CoA was added to this mixture, followed by BktB β-ketothiolase to initiate the reaction. The decrease in absorbance at 304 nm due to the thiolysis of the β-ketoacyl-CoA was utilized as a direct measure of activity. Extinction coefficients to convert absorbance units to μmol of product were 19.5, 12.2, and 14.0 cm^−1 mM^−1 for β-ketobutyryl-CoA, β-ketovaleryl-CoA, and β-ketocaproyl-CoA, respectively. β-ketoacyl-CoA concentration was varied from […] (CoA was fixed at 200 μM), and CoA concentration was varied from 20 to 400 μM (β-ketocaproyl-CoA was fixed at 60 μM) for determining kinetic parameters for β-ketoacyl-CoA and CoA, respectively. Reaction rates were calculated in the steady-state within the first minute following initiation. All data were fitted to the normal Michaelis-Menten equation using a non-linear regression analysis.

[1] = tested on: A. eutrophus PhbA and BktB β-ketothiolases; assay: β-Ketothiolase condensation assay with 1-14C-acetyl-CoA (PhbA, BktB); type: biochemical; conditions: 0.30 mM acetyl-CoA
From the text: As noted above, A. eutrophus can produce P(3HB-co-3HV) copolymer when provided with an appropriate C5 precursor. […] One of these β-ketothiolases, designated BktB herein, was encoded on plasmid pBK6. A. eutrophus BktB was obtained from E. coli DH5α transformed with plasmid pMON25754. pMON25754 was produced from the A. eutrophus pBK6 clone (Slater et al., 1988) by deleting a 5.0 kb XhoI fragment (there is an additional XhoI site approximately 5.0 kb 5′ to the XhoI site shown in FIG. 1 of Slater et al.). The pBK6 clone was produced by Slater et al. (1988) from A. eutrophus H16, i.e., ATCC accession number 17699, which is publicly available from the American Type Culture Collection, 12301 Parklawn Drive, Rockville, Md. 20852. BktB was overexpressed from its native promoter on the high copy plasmid pMON25754 by growing the cells overnight at 37° C. to stationary phase in LB broth containing ampicillin (100 μg/ml). A. eutrophus PhbA was obtained from E. coli DH5α transformed with pMON25636 (FIG. 20) by growing the cells at 37° C. in LB broth containing ampicillin (100 μg/ml) to early log phase and then inducing with IPTG. Cells were harvested after two hours of further growth.
The activity of β-ketothiolases can be assayed in both the condensation and thiolysis directions. However, condensation activity for products that are the result of a mixed condensation of acetyl-CoA and a longer chain acyl-CoA are difficult to measure. This is due to the difficulty in distinguishing between acetoacetyl-CoA, the product of condensing two acetyl-CoA molecules, and the mixed condensation reaction product, both of which form simultaneously. To date, condensation assays have been spectrophotometrically-based, but these are valid only when there is a single acyl-CoA substrate present (i.e., acetyl-CoA) since they cannot discriminate between the products formed. The assay described below represents the first reported assay that permits complete quantitation of all condensation products regardless of the nature of starting substrates.
β-ketothiolase assays designed to measure the condensation activity with acetyl-CoA plus either propionyl-CoA or butyryl-CoA were performed using 1-^14C-labelled acetyl-CoA. Since the equilibrium for the reaction lies heavily toward the starting acyl-CoAs rather than the condensed β-ketoacyl-CoA product, the latter was “pulled” to the corresponding β-hydroxyacyl-CoA using NADH and β-ketoacyl-CoA dehydrogenase. In addition, to avoid the strong feedback inhibition of β-ketothiolase by free CoA, each assay solution contained 5,5′-dithio-bis(2-nitrobenzoic acid) (DTNB) to trap chemically the free CoA produced by the reaction.
The condensation assay mixture (0.5 ml final volume) contained 100 mM KPi, pH 7.8, 0.5 mM NADH, 0.30 mM 1-^14C-acetyl-CoA (0.15 μCi), 5 units β-ketoacyl-CoA dehydrogenase, 0.5 mM DTNB, and variable propionyl- or butyryl-CoA as indicated in Table 5. The reaction was initiated by the addition of β-ketothiolase. Following 20 minutes at 30° C., each reaction mixture was quenched by the addition of 25 μl of 10% formic acid. Thirty μl of 25% H2SO4 were added to 200 μl of quenched reaction mix; this mixture was then incubated at 70° C. for 24 hours to hydrolyze all CoA thioesters to their free acids. Sixty μl of 5 M sodium formate were added to the sample to neutralize the pH, followed by analysis of a 130 μl aliquot using C18-reverse-phase HPLC (0.5×25 cm column). Detection and quantitation were carried out by monitoring flow-through with a Radiomatic flow detector. A gradient elution was employed using aqueous 1% acetic acid (solvent A) and acetonitrile (solvent B). […]

Sequence of BktB β-ketothiolase (Q0KBP1 2-394 limits assumed): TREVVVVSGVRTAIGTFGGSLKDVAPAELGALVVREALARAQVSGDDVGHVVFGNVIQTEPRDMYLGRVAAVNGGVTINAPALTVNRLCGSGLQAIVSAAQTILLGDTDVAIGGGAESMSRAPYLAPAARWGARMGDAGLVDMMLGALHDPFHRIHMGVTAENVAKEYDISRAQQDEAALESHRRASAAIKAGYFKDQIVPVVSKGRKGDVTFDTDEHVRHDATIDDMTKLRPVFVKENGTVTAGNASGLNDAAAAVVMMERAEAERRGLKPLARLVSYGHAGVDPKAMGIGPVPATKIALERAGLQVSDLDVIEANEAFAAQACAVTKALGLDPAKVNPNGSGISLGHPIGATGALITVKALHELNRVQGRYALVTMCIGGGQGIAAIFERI

**Q.** For `CC(=O)CC(=O)SCCNC(=O)CCNC(=O)[C@H](O)C(C)(C)COP(=O)(O)OP(=O)(O)OC[C@H]1O[C@@H](n2cnc3c(N)ncnc32)[C@H](O)[C@@H]1OP(=O)(O)O` [B-ketobutyryl-CoA], which Km (BktB β-ketothiolase; CoA fixed at 200 μM) is on record?
**A.** 37 ± 3 µM

**Q.** And the Vmax (BktB β-ketothiolase; CoA fixed at 200 μM)?
**A.** 122 ± 5 u/mg

**Q.** `CCC(=O)CC(=O)SCCNC(=O)CCNC(=O)[C@H](O)C(C)(C)COP(=O)(O)OP(=O)(O)OC[C@H]1O[C@@H](n2cnc3c(N)ncnc32)[C@H](O)[C@@H]1OP(=O)(O)O` [B-ketovaleryl-CoA] was tested. Which Km (BktB β-ketothiolase; CoA fixed at 200 μM) did it give?
**A.** 15 ± 1 µM

**Q.** And the Vmax (BktB β-ketothiolase; CoA fixed at 200 μM)?
**A.** 236 ± 8 u/mg

**Q.** For `CC(C)(COP(=O)(O)OP(=O)(O)OC[C@H]1O[C@@H](n2cnc3c(N)ncnc32)[C@H](O)[C@@H]1OP(=O)(O)O)[C@@H](O)C(=O)NCCC(=O)NCCS` [CoA, coenzyme A], which Vmax (BktB β-ketothiolase; β-ketocaproyl-CoA fixed at 60 μM) is on record?
**A.** 98 ± 3 u/mg

**Q.** With `CCCC(=O)CC(=O)SCCNC(=O)CCNC(=O)[C@H](O)C(C)(C)COP(=O)(O)OP(=O)(O)OC[C@H]1O[C@@H](n2cnc3c(N)ncnc32)[C@H](O)[C@@H]1OP(=O)(O)O` [B-ketocaproyl-CoA] as the molecule, how does the Km (BktB β-ketothiolase; CoA fixed at 200 μM) read?
**A.** 6 ± 0.7 µM

**Q.** And the Vmax (BktB β-ketothiolase; CoA fixed at 200 μM)?
**A.** 103 ± 3 u/mg

B1: PhbA: A. eutrophus PhbA β-ketothiolase obtained from E. coli DH5α transformed with pMON25636 (protein, UniProt P14611 1-393, looked up)
Acetyl-CoA acetyltransferase: MTDVVIVSAARTAVGKFGGSLAKIPAPELGAVVIKAALERAGVKPEQVSEVIMGQVLTAGSGQNPARQAAIKAGLPAMVPAMTINKVCGSGLKAVMLAANAIMAGDAEIVVAGGQENMSAAPHVLPGSRDGFRMGDAKLVDTMIVDGLWDVYNQYHMGITAENVAKEYGITREAQDEFAVGSQNKAEAAQKAGKFDEEIVPVLIPQRKGDPVAFKTDEFVRQGATLDSMSGLKPAFDKAGTVTAANASGLNDGAAAVVVMSAAKAKELGLTPLATIKSYANAGVDPKVMGMGPVPASKRALSRAEWTPQDLDLMEINEAFAAQALAVHQQMGWDTSKVNVNGGAIAIGHPIGASGCRILVTLLHEMKRRDAKKGLASLCIGGGMGVALAVERK
modifications: expressed in E. coli
notes: A. eutrophus PhbA β-ketothiolase obtained from E. coli DH5α transformed with pMON25636
**Q.** For B1, which “% Turnover C4 Product” value ([1]; propionyl-CoA 0 mM) is on record?
**A.** 16.9%

**Q.** And the “% Turnover C4 Product” value ([1]; propionyl-CoA 0.6 mM)?
**A.** 13.5%

**Q.** What about the “% Turnover C5 Product” value ([1]; propionyl-CoA 0.6 mM) of the same molecule?
**A.** 0%

**Q.** What about the “% Turnover C4 Product” value ([1]; propionyl-CoA 1.2 mM) of the same molecule?
**A.** 10.3%

**Q.** What about the “% Turnover C5 Product” value ([1]; propionyl-CoA 1.2 mM) of the same molecule?
**A.** 0%

**Q.** What about the “% Turnover C4 Product” value ([1]; propionyl-CoA 2.4 mM) of the same molecule?
**A.** 7.0%

**Q.** What about the “% Turnover C5 Product” value ([1]; propionyl-CoA 2.4 mM) of the same molecule?
**A.** 0%
